Source: patent US11753395B2 (Kinnate Biopharma Inc., priority 2021, dated 2023)

What was measured:
[1] = biological target: T1, Ba/F3-TPR-MET cells (Homo sapiens, UniProt P08581); test: CellTiter-Glo Cell Viability Assay, Ba/F3-TPR-MET; format: cell-based; conditions: 72 hours
T1 construct: fused on or other part: P12270 (Nucleoprotein TPR)
Procedure, shortened: (§1)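 IC50 values come from curve-fitted luminescence. Viable-cell ATP was read by CellTiter-Glo 2.0 after a 72 h, 37 °C incubation of 3000 TPR-MET or D1228N-mutant Ba/F3 cells per well. Compounds were tested as a 9-point, 3-fold series with 0.1% DMSO final.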

[2] = biological target: T2, MET (Homo sapiens, UniProt P08581); test: MET Mobility Shift Assay; conditions: biochemical assay IC50; 100 μM ATP, 60 minute kinase reaction
T2 construct: purchased Carna Biosciences 08-151
Procedure, shortened: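 IC50s come from inhibition of substrate-to-phosphopeptide conversion, read by electrophoretic mobility shift. Reaction: 100 μM ATP, 1.5 μM 5-FAM peptide, 0.625 nM MET, 10 mM MgCl2, 60 min, after a 30 min room-temperature enzyme pre-incubation, quenched with EDTA.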

[3] = biological target: T3, Ba/F3-TPR-MET-D1228N cells (Homo sapiens, UniProt P08581, D1228N, cells depend on it); test: CellTiter-Glo Cell Viability Assay, Ba/F3-TPR-MET-D1228N; format: cell-based; conditions: 72 hours
T3 construct: fused on or other part: P12270 (Nucleoprotein TPR)
T3 sequence (P08581 whole entry D1228N, the tested form may be a part): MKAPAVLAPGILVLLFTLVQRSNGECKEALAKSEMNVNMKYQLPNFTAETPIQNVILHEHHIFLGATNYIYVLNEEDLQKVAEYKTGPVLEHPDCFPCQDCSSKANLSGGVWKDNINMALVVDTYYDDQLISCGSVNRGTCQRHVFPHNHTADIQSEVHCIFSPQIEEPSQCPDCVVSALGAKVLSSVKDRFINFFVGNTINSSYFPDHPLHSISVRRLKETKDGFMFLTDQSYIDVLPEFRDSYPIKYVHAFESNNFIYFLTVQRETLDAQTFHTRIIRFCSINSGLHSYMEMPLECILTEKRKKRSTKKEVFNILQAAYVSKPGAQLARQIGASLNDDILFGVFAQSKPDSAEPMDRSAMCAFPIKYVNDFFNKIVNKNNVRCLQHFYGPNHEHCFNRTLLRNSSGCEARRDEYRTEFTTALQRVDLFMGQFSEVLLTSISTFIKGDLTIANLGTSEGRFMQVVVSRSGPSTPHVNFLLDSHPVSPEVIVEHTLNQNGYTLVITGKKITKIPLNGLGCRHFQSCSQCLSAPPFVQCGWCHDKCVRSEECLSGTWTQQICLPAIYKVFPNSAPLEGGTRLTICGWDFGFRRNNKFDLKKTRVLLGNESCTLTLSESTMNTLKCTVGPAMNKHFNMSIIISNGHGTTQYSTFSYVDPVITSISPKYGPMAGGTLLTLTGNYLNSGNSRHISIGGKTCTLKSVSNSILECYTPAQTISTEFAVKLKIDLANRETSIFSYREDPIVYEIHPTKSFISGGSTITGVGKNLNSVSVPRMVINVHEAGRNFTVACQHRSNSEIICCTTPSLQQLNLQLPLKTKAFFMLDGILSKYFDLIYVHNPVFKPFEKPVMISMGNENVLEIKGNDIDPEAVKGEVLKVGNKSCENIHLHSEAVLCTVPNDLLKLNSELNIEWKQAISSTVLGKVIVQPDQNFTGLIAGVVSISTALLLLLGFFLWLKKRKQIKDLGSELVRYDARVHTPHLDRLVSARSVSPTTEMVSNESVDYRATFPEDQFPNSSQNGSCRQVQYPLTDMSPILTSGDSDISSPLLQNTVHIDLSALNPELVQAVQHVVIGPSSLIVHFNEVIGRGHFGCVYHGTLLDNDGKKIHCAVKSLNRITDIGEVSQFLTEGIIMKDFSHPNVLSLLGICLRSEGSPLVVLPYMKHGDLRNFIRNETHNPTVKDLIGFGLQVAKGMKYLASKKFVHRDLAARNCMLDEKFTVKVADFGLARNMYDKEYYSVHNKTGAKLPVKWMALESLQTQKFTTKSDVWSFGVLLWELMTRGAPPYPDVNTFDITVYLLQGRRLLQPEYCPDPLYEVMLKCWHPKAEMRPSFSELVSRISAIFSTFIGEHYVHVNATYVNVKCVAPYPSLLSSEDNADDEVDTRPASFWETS
Procedure, shortened: as §1

[4] = biological target: T4, MET D1228N (Homo sapiens, UniProt P08581, D1228N); test: MET D1228N Mobility Shift Assay; conditions: biochemical assay IC50; 100 μM ATP, 60 minute kinase reaction
T4 construct: purchased Signalchem M52-12IG
T4 sequence (P08581 25-1390 D1228N): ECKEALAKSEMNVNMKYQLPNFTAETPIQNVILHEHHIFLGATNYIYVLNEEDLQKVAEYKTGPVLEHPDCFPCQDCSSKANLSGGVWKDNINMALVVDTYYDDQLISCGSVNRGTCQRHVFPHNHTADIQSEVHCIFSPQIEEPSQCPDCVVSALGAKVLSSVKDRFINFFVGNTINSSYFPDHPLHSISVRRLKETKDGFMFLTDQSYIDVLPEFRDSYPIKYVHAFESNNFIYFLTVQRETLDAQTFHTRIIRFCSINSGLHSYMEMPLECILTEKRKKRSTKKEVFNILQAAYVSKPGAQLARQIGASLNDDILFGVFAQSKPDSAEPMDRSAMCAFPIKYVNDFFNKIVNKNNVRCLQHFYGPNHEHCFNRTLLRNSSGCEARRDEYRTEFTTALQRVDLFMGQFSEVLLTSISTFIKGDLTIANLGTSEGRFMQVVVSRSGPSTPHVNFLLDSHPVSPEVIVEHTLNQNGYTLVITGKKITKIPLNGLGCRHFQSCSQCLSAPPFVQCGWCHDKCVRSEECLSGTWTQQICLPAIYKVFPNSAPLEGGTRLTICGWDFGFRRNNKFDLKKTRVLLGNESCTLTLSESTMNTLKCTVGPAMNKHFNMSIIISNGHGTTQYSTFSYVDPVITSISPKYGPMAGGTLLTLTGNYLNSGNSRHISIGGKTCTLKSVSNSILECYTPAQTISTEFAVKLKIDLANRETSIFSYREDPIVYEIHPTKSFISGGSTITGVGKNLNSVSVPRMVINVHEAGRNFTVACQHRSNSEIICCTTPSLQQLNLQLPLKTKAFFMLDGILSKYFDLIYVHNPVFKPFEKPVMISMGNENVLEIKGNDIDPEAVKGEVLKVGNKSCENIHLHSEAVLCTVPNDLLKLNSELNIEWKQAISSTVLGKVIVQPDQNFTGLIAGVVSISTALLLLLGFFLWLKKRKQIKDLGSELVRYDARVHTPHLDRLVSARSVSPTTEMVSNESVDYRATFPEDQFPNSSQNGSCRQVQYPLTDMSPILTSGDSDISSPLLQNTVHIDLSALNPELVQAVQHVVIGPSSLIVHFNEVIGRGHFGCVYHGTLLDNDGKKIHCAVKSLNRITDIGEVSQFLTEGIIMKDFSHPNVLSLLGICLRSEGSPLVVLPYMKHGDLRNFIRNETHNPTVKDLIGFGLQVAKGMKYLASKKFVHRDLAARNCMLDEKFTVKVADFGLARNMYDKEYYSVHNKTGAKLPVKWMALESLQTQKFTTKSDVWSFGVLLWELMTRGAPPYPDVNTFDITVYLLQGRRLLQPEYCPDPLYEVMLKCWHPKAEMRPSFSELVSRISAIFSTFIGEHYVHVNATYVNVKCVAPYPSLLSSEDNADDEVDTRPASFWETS
Procedure, shortened: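 Microfluidic electrophoresis quantified phosphorylated versus unphosphorylated 5-FAM-KKKKEEIYFFF peptide (1.5 μM) after a 60 min reaction with 100 μM ATP. MET D1228N (0.313 nM) in 50 mM HEPES, 10 mM MgCl2, 2 mM DTT was preincubated 30 min; IC50 fitted to conversion inhibition.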

T1 sequence (P08581 whole entry, change not shown, the tested form may be a part): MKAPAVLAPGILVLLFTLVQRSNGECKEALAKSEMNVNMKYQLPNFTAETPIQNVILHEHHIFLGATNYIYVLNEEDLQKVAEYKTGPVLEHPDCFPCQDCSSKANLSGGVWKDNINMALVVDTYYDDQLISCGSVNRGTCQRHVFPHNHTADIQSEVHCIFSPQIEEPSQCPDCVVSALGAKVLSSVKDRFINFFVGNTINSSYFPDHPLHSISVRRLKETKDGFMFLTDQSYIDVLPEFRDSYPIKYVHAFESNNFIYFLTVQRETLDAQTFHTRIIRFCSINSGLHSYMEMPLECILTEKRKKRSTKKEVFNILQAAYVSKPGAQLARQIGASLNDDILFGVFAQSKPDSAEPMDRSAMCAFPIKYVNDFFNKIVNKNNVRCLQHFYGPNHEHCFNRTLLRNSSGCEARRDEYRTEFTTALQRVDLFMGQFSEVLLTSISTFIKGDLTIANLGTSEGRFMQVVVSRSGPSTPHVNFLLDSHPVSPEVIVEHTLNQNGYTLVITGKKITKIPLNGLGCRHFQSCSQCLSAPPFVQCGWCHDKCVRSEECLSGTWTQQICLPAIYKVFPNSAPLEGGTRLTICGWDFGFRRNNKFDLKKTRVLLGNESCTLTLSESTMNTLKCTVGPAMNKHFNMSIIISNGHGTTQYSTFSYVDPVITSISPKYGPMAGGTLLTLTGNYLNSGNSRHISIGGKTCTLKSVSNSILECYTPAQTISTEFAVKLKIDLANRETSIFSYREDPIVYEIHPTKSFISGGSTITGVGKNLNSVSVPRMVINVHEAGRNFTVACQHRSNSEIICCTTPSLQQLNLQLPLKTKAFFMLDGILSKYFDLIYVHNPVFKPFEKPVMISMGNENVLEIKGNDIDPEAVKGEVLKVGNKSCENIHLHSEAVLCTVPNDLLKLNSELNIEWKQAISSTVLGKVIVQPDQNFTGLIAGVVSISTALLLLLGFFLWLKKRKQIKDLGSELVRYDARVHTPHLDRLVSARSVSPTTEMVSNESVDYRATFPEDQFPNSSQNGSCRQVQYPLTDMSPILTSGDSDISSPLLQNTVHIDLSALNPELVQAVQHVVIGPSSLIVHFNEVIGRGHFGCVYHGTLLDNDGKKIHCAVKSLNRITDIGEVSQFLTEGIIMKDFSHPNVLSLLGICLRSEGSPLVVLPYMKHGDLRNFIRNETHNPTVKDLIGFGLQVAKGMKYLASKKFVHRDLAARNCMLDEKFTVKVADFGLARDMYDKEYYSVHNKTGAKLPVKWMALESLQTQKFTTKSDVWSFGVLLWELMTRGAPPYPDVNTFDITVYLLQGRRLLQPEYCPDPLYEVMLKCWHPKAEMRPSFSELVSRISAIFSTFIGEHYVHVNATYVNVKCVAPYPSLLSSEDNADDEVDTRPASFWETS

For `CNCCOc1cc2nccc(Oc3c(F)cc(NC(=O)c4cnc(F)cc4OC4CC4)cc3F)c2cc1OC` [Example 110, 4-cyclopropoxy-N-[3,5-difluoro-4-({6-methoxy-7-[2-(methylamino)ethoxy]quinolin-4-yl}oxy)phenyl]-6-fluoropyridine-3-carboxamide], the EC50 [1] was at most 100 nM, the IC50 [2] was at most 100 nM and the EC50 [3] was at most 100 nM. The IC50 [4] was at most 100 nM.

With `COc1cc(OC2CC2)c(C(=O)Nc2cc(F)c(Oc3ccnc4cc(OCCO)c(OC)cc34)c(F)c2)cn1` [Example 111, 4-cyclopropoxy-N-(3,5-difluoro-4-((7-(2-hydroxyethoxy)-6-methoxyquinolin-4-yl)oxy)phenyl)-6-methoxypyridine-3-carboxamide] the EC50 [1] was at most 100 nM, the IC50 [2] was at most 100 nM and the EC50 [3] was at most 100 nM. It also gave an IC50 [4] of at most 100 nM.

Compound `CNCCOc1cc2nccc(Oc3c(F)cc(NC(=O)c4cnc(Cl)cc4OC4CC4)cc3F)c2cc1OC` [Example 112, 6-chloro-4-cyclopropoxy-N-[3,5-difluoro-4-({6-methoxy-7-[2-(methylamino)ethoxy]quinolin-4-yl}oxy)phenyl]pyridine-3-carboxamide] has an EC50 [1] of 100 to 1000 nM, an IC50 [2] of at most 100 nM and an EC50 [3] of 100 to 1000 nM. It also gave an IC50 [4] of at most 100 nM.

With `CNCCOc1ccc2c(Oc3c(F)cc(NC(=O)c4cnc(Cl)cc4OC4CC4)cc3F)ccnc2c1` [Example 113, 6-chloro-4-cyclopropoxy-N-[3,5-difluoro-4-({7-[2-(methylamino)ethoxy]quinolin-4-yl}oxy)phenyl]pyridine-3-carboxamide] the EC50 [1] was at most 100 nM, the IC50 [2] was at most 100 nM and the EC50 [3] was at most 100 nM. It also gave an IC50 [4] of at most 100 nM.

`CNCCOc1cc2nccc(Oc3c(F)cc(NC(=O)c4cnc(C)nc4OC4CC4)cc3F)c2cc1OC` [Example 114, 4-cyclopropoxy-N-[3,5-difluoro-4-({6-methoxy-7-[2-(methylamino)ethoxy]quinolin-4-yl}oxy)phenyl]-2-methylpyrimidine-5-carboxamide] showed an EC50 [1] of 100 to 1000 nM, an IC50 [2] of at most 100 nM and an EC50 [3] of 100 to 1000 nM. For the same compound, the IC50 [4] was at most 100 nM.

`CNCCOc1ccc2c(Oc3c(F)cc(NC(=O)c4cnc(C)cc4OC4CC4)cc3F)ccnc2c1` [Example 115, 4-cyclopropoxy-N-(3,5-difluoro-4-((7-(2-(methylamino)ethoxy)quinolin-4-yl)oxy)phenyl)-6-methylpyridine-3-carboxamide] was tested, and the EC50 [1] was at most 100 nM, the IC50 [2] was at most 100 nM and the EC50 [3] was at most 100 nM. The IC50 [4] was at most 100 nM.

For `COc1cc2c(Oc3c(F)cc(NC(=O)c4cnc(C)cc4OC4CC4)cc3F)ccnc2cc1OCCO` [Example 116, 4-cyclopropoxy-N-(3,5-difluoro-4-{[7-(2-hydroxyethoxy)-6-methoxyquinolin-4-yl]oxy}phenyl)-6-methylpyridine-3-carboxamide], the EC50 [1] was at most 100 nM, the IC50 [2] was at most 100 nM and the EC50 [3] was at most 100 nM. For the same compound, the IC50 [4] was at most 100 nM.

Compound `CNCCOc1cc2nccc(Oc3c(F)cc(NC(=O)c4cnc(C)cc4OC4CC4)cc3F)c2cc1OC` [Example 117, 4-cyclopropoxy-N-[3,5-difluoro-4-({6-methoxy-7-[2-(methylamino)ethoxy]quinolin-4-yl}oxy)phenyl]-6-methylpyridine-3-carboxamide] has an EC50 [1] of at most 100 nM, an IC50 [2] of at most 100 nM and an EC50 [3] of at most 100 nM. It also gave an IC50 [4] of at most 100 nM.

With `COc1cc2c(Oc3c(F)cc(NC(=O)c4c(OC5CC5)ccnc4F)cc3F)ccnc2cc1OCCO` [Example 118] the EC50 [1] was at most 100 nM, the IC50 [2] was at most 100 nM and the EC50 [3] was at most 100 nM. For the same compound, the IC50 [4] was at most 100 nM.

Compound `CCOc1ccnc(F)c1C(=O)Nc1cc(F)c(Oc2ccnc3cc(OCCCNC)c(OC)cc23)c(F)c1` [Example 119] has an EC50 [1] of 100 to 1000 nM, an IC50 [2] of at most 100 nM and an EC50 [3] of 100 to 1000 nM. For the same compound, the IC50 [4] was at most 100 nM.

In the case of `COCCOc1ccc2c(Oc3c(F)cc(NC(=O)c4nnccc4OC4CC4)cc3F)ccnc2c1` [Example 120, 4-cyclopropoxy-N-(3,5-difluoro-4-((7-(2-methoxyethoxy)quinolin-4-yl)oxy)phenyl)pyridazine-3-carboxamide], the EC50 [1] is reported as 100 to 1000 nM, the IC50 [2] is reported as at most 100 nM and the EC50 [3] is reported as 100 to 1000 nM. The IC50 [4] was at most 100 nM.

In the case of `COc1cc2c(Oc3c(F)cc(NC(=O)c4cnccc4OC)cc3F)ccnc2cc1OCCO` [Example 121, N-(3,5-difluoro-4-((7-(2-hydroxyethoxy)-6-methoxyquinolin-4-yl)oxy)phenyl)-4-methoxypyridine-3-carboxamide], the EC50 [1] is reported as at most 100 nM, the IC50 [2] is reported as at most 100 nM and the EC50 [3] is reported as at most 100 nM. It also gave an IC50 [4] of at most 100 nM.

Work on `COc1cc2nccc(Oc3c(F)cc(NC(=O)c4cnccc4OC)cc3F)c2cc1OCCO` [Example 122, N-(3,5-difluoro-4-{[6-(2-hydroxyethoxy)-7-methoxyquinolin-4-yl]oxy}phenyl)-4-methoxypyridine-3-carboxamide] yielded an EC50 [1] of at most 100 nM, an IC50 [2] of at most 100 nM and an EC50 [3] of at most 100 nM. The IC50 [4] was at most 100 nM.

`COc1cc2nccc(Oc3c(F)cc(NC(=O)c4cnccc4OC)cc3F)c2cc1OC[C@H](C)O` [Example 123, (S)-N-(3,5-difluoro-4-{[6-(2-hydroxypropoxy)-7-methoxyquinolin-4-yl]oxy}phenyl)-4-methoxypyridine-3-carboxamide] gave an EC50 [1] of at most 100 nM, an IC50 [2] of at most 100 nM and an EC50 [3] of at most 100 nM. The IC50 [4] was at most 100 nM.

`COc1cc2nccc(Oc3c(F)cc(NC(=O)c4cnccc4OC)cc3F)c2cc1OC[C@@H](C)O` [Example 124, (R)-N-(3,5-difluoro-4-{[6-(2-hydroxypropoxy)-7-methoxyquinolin-4-yl]oxy}phenyl)-4-methoxypyridine-3-carboxamide] showed an EC50 [1] of at most 100 nM, an IC50 [2] of at most 100 nM and an EC50 [3] of at most 100 nM. It also gave an IC50 [4] of at most 100 nM.

Work on `COc1cc2nccc(Oc3c(F)cc(NC(=O)c4cnccc4OC)cc3F)c2cc1OCC(C)(C)O` [Example 125, N-(3,5-difluoro-4-{[6-(2-hydroxy-2-methylpropoxy)-7-methoxyquinolin-4-yl]oxy}phenyl)-4-methoxypyridine-3-carboxamide] yielded an EC50 [1] of at most 100 nM, an IC50 [2] of at most 100 nM and an EC50 [3] of at most 100 nM. For the same compound, the IC50 [4] was at most 100 nM.

`COc1cc2nccc(Oc3c(F)cc(NC(=O)c4cnccc4OC)cc3F)c2cc1O[C@@H](C)CO` [Example 126, (S)-N-(3,5-difluoro-4-{[6-((1-hydroxypropan-2-yl)oxy)-7-methoxyquinolin-4-yl]oxy}phenyl)-4-methoxypyridine-3-carboxamide] showed an EC50 [1] of at most 100 nM, an IC50 [2] of at most 100 nM and an EC50 [3] of at most 100 nM. The IC50 [4] was at most 100 nM.

`COc1cc2nccc(Oc3c(F)cc(NC(=O)c4ccncc4OC)cc3F)c2cc1O[C@@H](C)CO` [Example 127, (S)-N-(3,5-difluoro-4-((6-((1-hydroxypropan-2-yl)oxy)-7-methoxyquinolin-4-yl)oxy)phenyl)-3-methoxyisonicotinamide] gave an EC50 [1] of at most 100 nM, an IC50 [2] of at most 100 nM and an EC50 [3] of at most 100 nM. For the same compound, the IC50 [4] was at most 100 nM.

Compound `COC[C@H](C)Oc1cc2c(Oc3c(F)cc(NC(=O)c4cnccc4OC)cc3F)ccnc2cc1OC` [Example 128, (S)-N-(3,5-difluoro-4-((7-methoxy-6-((1-methoxypropan-2-yl)oxy)quinolin-4-yl)oxy)phenyl)-4-methoxynicotinamide] has an EC50 [1] of at most 100 nM, an IC50 [2] of at most 100 nM and an EC50 [3] of at most 100 nM. It also gave an IC50 [4] of at most 100 nM.

In the case of `COc1cc2nccc(Oc3c(F)cc(NC(=O)c4cnccc4OC4CC4)cc3F)c2cc1O[C@@H](C)CO` [Example 129, (S)-4-cyclopropoxy-N-(3,5-difluoro-4-((6-((1-hydroxypropan-2-yl)oxy)-7-methoxyquinolin-4-yl)oxy)phenyl)nicotinamide], the EC50 [1] is reported as at most 100 nM, the IC50 [2] is reported as at most 100 nM and the EC50 [3] is reported as at most 100 nM. It also gave an IC50 [4] of at most 100 nM.
